Experimental data as given in patent publication US20050100595A1, “Methods for micronization of hydrophobic drugs” (Brown University Research Foundation, priority 2001, published 2005).

Assays:
in vivo = conditions: rat, 25 mg/kg
Excerpt: Rats were anesthetized using isoflurane gas.
Non-compartmental pharmacokinetics were assumed.

[1] = Dicumarol loading by NaOH extraction; assay type: physicochemical; conditions: dicumarol content by NaOH extraction
Experimental: 100 mg p(FA:SA) 17:83 was dissolved in this solution by sonicating for an additional 30 s. The resultant solution was dispersed into 1.0 L petroleum ether and the precipitate was collected using a 100 nm filter composed of mixed-cellulose esters. The microsphere formulation was then frozen and lyophilized for 24 hours. The dicumarol loading was determined in this formulation by a simple extraction protocol. Microspheres were incubated overnight in 2.5 N NaOH at 37° C. Upon dissolution, an aliquot of approximately 15 μg based on theoretical loading was added to 2.5 N NaOH to make a total volume of 800 μL. This mixture was agitated for 2 minutes and centrifuged for 2 minutes at 11,269 g.
The dicumarol loading was determined in all formulations by a simple extraction protocol. Microspheres were incubated overnight in 2.5 N NaOH at 37° C. Upon dissolution, an aliquot of approximately 15 μg based on theoretical loading was added to 2.5 N NaOH to make a total volume of 800 μL. This mixture was agitated for 2 minutes and centrifuged for 2 minutes at 11,269 g.

[2] = Scanning electron microscopy of dicumarol formulations; assay type: physicochemical
Experimental: Scanning Electron Microscopy: All samples were sputter-coated with an Au—Pd target for 3.5 minutes and spread out on a carbon-backed adhesive disc on top of the SEM stub. The Hitachi 2700 was used to visualize the samples at an accelerating voltage of 8 kV.

[3] = Coulter particle size analysis (laser-light diffractometry, volume statistics); assay type: physicochemical
Experimental: A 250 μg/mL suspension of microspheres in 1% pluronic F127 [poly(ethylene oxide)-b-poly(propylene oxide)-b-poly(ethylene oxide)]/1% hydroxypropylmethylcellulose (HPMC) was introduced into the small volume fluid module. Only the Coulter output based on volume measurements was used for analysis.

## O=c1oc2ccccc2c(O)c1Cc1c(O)c2ccccc2oc1=O [Stock, Dicumarol]
In vivo; male, Sprague-Dawley
  bioavailability: 90.1 ± 7.3%
In vivo; male, Sprague-Dawley, po
  Cmax: 73 ± 6 µg/mL
  Tmax: 14 ± 2 h
  plasma concentration reached (peak of plasma curve): 64 µg/mL
  time after which the peak of the plasma curve was reached: 3 h
In vivo; po
  AUC: 2666 ± 206 µg·h/mL
[1]
  Loading (drug loading): 100%
[2]; FIG. 1
  particle size seen in SEM micrographs: 10-20 microns
[2]; FIG. 7A
  particle size seen in SEM micrographs: approximately 25 μm
[3]; based on volume statistics
  mean particle diameter: 18.5 μm
[3]; volume calculations, 25% of population less than this size
  Coulter Particle Analysis 25% <: 12.98 μm
[3]; volume calculations, 50% of population less than this size
  Coulter Particle Analysis 50% <: 18.95 μm
[3]; volume calculations, 75% of population less than this size
  Coulter Particle Analysis 75% <: 24.82 μm
